This is an account of results in patent US20090203750A1, “5-HT2C Receptor Agonists as Anorectic Agents” (priority 2005, published 2009).

Like-named read-outs stand apart in the source and are kept apart here.

Common to all, as to format: cell-based
In one assay the target is T1, human 5-HT2B receptor (Homo sapiens, UniProt P41595).
T1 construct: expressed in transfected cells; host or cells: HEK293 (ATCC CRL-1573), retroviral infection with pBabepuro-FLAG-h5-HT2BR, polyclonal line
Kind of assay: Functional activity by Ca++-flux (intracellular calcium mobilization), 5-HT2B. The conditions noted are these: for EC50: read-out: 5-HT2B human EC50.

Another assay has as its target T2, human 5-HT2A receptor (Homo sapiens, UniProt P28223).
T2 construct: expressed in transfected cells; host or cells: HEK-293
Kind of assay: Functional activity by Ca++-flux (intracellular calcium mobilization), 5-HT2A. As for the experimental part: The functional activity of the compounds for the human 5-HT2A, human 5-HT2B, and human 5-HT2C receptors is determined by measurement of Ca++-flux as detailed in the Examples, in transiently transfected HEK-293 cells and the results are summarized in Table I. Structures of compounds listed in Table I are given in Scheme 15.
The functional activity of compounds for the human 5-HT2A, human 5-HT2B, and human 5-HT2C receptors as agonists, partial agonists and antagonists is determined by measurement of Ca++-flux. The results are summarized in Table 1 where EC50 for different receptors are given (nM) and the ratio of activities 2A/2C and 2B/2C are also given. As noted above, other methods for assessing agonist/antagonist function of compounds for 5-HT2 family receptors are known in the art.
(§1) For these studies stably expressing lines of h5-HT2A, h5-HT2B, and h5-HT2C receptors are prepared in HEK-293 cells. For the h5-HT2A and h5-HT2C-INI receptors, stably expressing HEK-293 cell lines were constructed as previously described using a pIRES-NEO vector system (See: Rauser et al, J Pharmacol Exp Ther 299: 83-89, 2001).
(§2) Stable cell lines were plated with ˜40,000 cells/well into uncoated (3T3 cells) or poly-L-lysine coated (HEK293 cells) 96-well plates in DMEM supplemented with 5% dialyzed FBS. 16-24 hrs post-plating, the medium was aspirated and replaced with 30 μl/well of Calcium Assay Kit Component A Dye (Molecular Devices; Sunnyvale, Calif.) dissolved in 30 ml/bottle of assay buffer (2.5 mM probenecid, 20 mM Hepes, and 1× Hanks' Balanced Salt Solution (Invitrogen; Carlsbad, Calif.) (138 mM NaCl, 5.3 mM KCl, 1.3 mM CaCl2, 0.49 mM MgCl2, 0.41 mM MgSO4, 0.44 mM KH2PO4, 0.34 mM Na2HPO4) pH 7.4. Plates were incubated in the dye for 1 hr at 37° C. Dilutions were made in assay buffer as 2× stocks and added to 96-well drug plates. Fluorometric imaging was performed using a FlexStation II plate reader (Molecular Devices) reading the plate at 1.5 second intervals for 1 min. After establishing a fluorescent baseline (excitation at 485 nm and emission at 525 nm, using a […] cutoff), the FlexStation II automatically transferred 30 μl of 2× drug stocks from the drug plate to the cell plate at the 20 second time point with reading for another 40 seconds. Peak relative fluorescence units (RFU) were subtracted from baseline RFUs using SoftMax Pro (Molecular Devices) and values were imported into GraphPad Prism version 4.03 (GraphPad Software; San Diego, Calif.) for analysis. Ca++-flux studies are very convenient for initial screening of large numbers of compounds for agonist activity.
Compounds are resuspended in DMSO at a stock concentration of 2-15 mM and, for a typical agonist screen, are diluted in assay buffer to a final 2× concentration of 20 μM into drugs plates. Compounds are added in duplicate to cell plates using the FlexStation II as described to identify agonists, defined as having >10% of maximal 5-HT response. […] Generally, screens are performed twice with each determination being made in duplicate. Typical Z′-factor (Zhang et al., 1999) values for agonist screens ranged from 0.61-0.79 (5-HT2AR), 0.42-0.81 (5-HT2BR) and 0.38-0.72 (5-HT2CR); these Z′-factor values are adequate for screening studies in which N=2 determinations are made and the screens replicated for a total of N=4 determinations.
(§3) Compounds identified by primary screens to be agonists are subsequently used in concentration-response experiments to verify the initial observations and obtain agonist potencies. Concentration-response studies are performed in triplicate or quadruplicate at each concentration and repeated three times. Baseline-subtracted RFU values imported into GraphPad Prism are analyzed by non-linear regression to obtain pEC50 values, and normalized to maximal 5-HT response to obtain relative efficacies.

For a further assay, the target named is T3, human 5-HT2C receptor (Homo sapiens, UniProt P28335).
T3 construct: expressed in transfected cells; host or cells: HEK-293
T3 sequence (P28335 33-458): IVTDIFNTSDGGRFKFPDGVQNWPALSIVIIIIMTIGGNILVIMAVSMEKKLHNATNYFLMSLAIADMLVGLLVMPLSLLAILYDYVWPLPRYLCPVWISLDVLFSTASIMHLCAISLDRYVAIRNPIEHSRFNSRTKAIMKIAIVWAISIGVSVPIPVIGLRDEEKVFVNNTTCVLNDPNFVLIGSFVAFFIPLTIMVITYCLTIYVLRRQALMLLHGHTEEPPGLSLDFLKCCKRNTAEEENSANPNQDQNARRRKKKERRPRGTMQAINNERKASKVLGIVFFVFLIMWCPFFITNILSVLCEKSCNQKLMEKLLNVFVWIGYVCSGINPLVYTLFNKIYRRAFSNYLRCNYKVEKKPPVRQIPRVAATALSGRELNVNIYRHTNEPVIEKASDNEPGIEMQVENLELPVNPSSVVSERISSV
Kind of assay: Functional activity by Ca++-flux (intracellular calcium mobilization), 5-HT2C. The conditions noted are these: for 2A/2C ratio: ratio of EC50 5-HT2A / 5-HT2C; for 2B/2C ratio: ratio of EC50 5-HT2B / 5-HT2C. As for the experimental part: The functional activity of compounds for the human 5-HT2A, human 5-HT2B, and human 5-HT2C receptors as agonists, partial agonists and antagonists is determined by measurement of Ca++-flux. […] As noted above, other methods for assessing agonist/antagonist function of compounds for 5-HT2 family receptors are known in the art.
as §1, §2
Compounds are resuspended in DMSO at a stock concentration of 2-15 mM and, for a typical agonist screen, are diluted in assay buffer to a final 2× concentration of 20 μM into drugs plates. Compounds are added in duplicate to cell plates using the FlexStation II as described to identify agonists, defined as having >10% of maximal 5-HT response. […] Generally, screens are performed twice with each determination being made in duplicate.
as §3

[1] abbreviates: Ca++-flux, HEK-293 cells, NA = not active.
The mark [2] stands for this setting: Ca++-flux, HEK-293 cells, NA = not active, read-out: 5-HT2C human EC50.
Setting [3] is: Ca++-flux, HEK-293 cells, NA = not active, Hydrochloride.

T2 sequence (P28223 whole entry): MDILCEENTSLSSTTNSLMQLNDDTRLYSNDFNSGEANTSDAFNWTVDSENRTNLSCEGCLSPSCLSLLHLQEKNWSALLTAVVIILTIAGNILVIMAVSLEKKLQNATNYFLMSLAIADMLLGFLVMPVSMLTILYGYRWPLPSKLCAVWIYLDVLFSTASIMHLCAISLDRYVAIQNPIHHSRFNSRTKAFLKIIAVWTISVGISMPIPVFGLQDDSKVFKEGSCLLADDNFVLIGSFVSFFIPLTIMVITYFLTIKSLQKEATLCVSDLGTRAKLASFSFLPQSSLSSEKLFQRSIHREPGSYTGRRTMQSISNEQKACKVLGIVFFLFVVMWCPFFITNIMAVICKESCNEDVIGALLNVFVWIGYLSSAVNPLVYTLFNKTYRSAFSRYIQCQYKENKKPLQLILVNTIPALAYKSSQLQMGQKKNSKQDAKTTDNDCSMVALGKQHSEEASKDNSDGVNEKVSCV
T1 sequence (P41595 whole entry): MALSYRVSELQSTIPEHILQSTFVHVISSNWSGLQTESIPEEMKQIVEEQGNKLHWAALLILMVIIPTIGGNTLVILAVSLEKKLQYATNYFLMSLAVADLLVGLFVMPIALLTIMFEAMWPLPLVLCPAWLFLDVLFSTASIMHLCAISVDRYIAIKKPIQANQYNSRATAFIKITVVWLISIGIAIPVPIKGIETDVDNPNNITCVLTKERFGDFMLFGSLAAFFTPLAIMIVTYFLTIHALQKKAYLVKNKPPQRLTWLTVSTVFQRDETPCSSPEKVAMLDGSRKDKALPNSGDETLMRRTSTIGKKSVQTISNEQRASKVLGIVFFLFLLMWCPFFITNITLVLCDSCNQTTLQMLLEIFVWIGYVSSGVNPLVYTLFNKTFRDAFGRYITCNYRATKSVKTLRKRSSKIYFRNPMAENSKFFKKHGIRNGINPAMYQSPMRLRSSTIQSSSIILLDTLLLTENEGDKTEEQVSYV

In the case of “cis-(±)-(2-Phenyl-cyclopropyl)-methylamine Hydrochloride [TKU-II-19]”, the “activity at 5-HT2B receptor” value on human 5-HT2B receptor is “poorly active”. Also, the EC50 at human 5-HT2B receptor (setting [1]) was determined as 0.308 µM. For the same molecule, the “activity at 5-HT2A receptor” value at human 5-HT2A receptor is listed as “poorly active”. Moreover, the EC50 on human 5-HT2A receptor (setting [1]) was determined as 0.705 µM. On human 5-HT2C receptor, the “activity at 5-HT2C receptor” value is recorded as “poorly active”, the 2A/2C ratio is recorded as 4.64 and the 2B/2C ratio stood at 2.03. Besides, on human 5-HT2C receptor (setting [2]), the EC50 worked out at 152 nM.

`CC(C)N[C@@H]1C[C@H]1c1ccccc1` (racemic) [TKU-II-33, trans-(±)-Isopropyl-(2-phenyl-cyclopropyl)-amine]: the results for the EC50 on human 5-HT2A receptor (setting [1]) and at human 5-HT2C receptor (setting [2]) were 1470 µM and 8840 nM, respectively. In addition, at human 5-HT2C receptor, the 2A/2C ratio was found to be 166.

Turning to `CNC[C@@H]1C[C@H]1c1ccccc1` (racemic) [TKU-II-39, trans-(±)-Methyl-(2-phenyl-cyclopropylmethyl)-amine], the EC50 at human 5-HT2B receptor (setting [1]) turned out to be 0.98 µM; on human 5-HT2A receptor (setting [1]), 3.71 µM; at human 5-HT2C receptor (setting [2]) it was 718 nM. The 2A/2C ratio on human 5-HT2C receptor is given as 5.18. Besides, the 2B/2C ratio at human 5-HT2C receptor amounted to 1.36.

With “trans-(±)-[2-(4′-Fluoro-biphenyl-4-yl)-cyclopropyl]-methylamine Hydrochloride [TKU-II-57]”, the EC50 at human 5-HT2B receptor (setting [1]) came to 624 µM; at human 5-HT2A receptor (setting [1]), 1030 µM; at human 5-HT2C receptor (setting [2]), 10200 nM. Moreover, the 2A/2C ratio on human 5-HT2C receptor was 101.1. On human 5-HT2C receptor, the 2B/2C ratio is 61.

For “trans-(±)-[2-(4-Fluoro-phenyl)-cyclopropyl]-methylamine Hydrochloride [TKU-II-90]”, the EC50 on human 5-HT2A receptor (setting [1]) came out at 0.0071 µM.

Consider “trans-(±)-[2-(4′-Chloro-biphenyl-2-yl)-cyclopropyl]-methylamine Hydrochloride [TKU-II-119]”, for which the results for the EC50 at human 5-HT2B receptor (setting [1]), on human 5-HT2A receptor (setting [1]) and at human 5-HT2C receptor (setting [2]) were 0.0637 µM, 0.215 µM and 2.54 nM, respectively. Besides, the 2A/2C ratio at human 5-HT2C receptor is 85. Also, at human 5-HT2C receptor, the 2B/2C ratio is reported as 25.

As to “trans-(±)-[2-(2-Fluoro-phenyl)-cyclopropyl]-methylamine Hydrochloride [TKU-II-100]”, the half-maximal effective concentration (EC50) at human 5-HT2B receptor (setting [1]) was found to be 0.0002 µM. In addition, the 50% effective concentration (EC50) on human 5-HT2A receptor (setting [1]) worked out at 0.00062 µM. Also, at human 5-HT2C receptor, the “activity at 5-HT2C receptor” value is “good potency”, the 2A/2C ratio is 0.94 and the 2B/2C ratio came to 0.3. In addition, the concentration giving a half-maximal response (EC50) at human 5-HT2C receptor (setting [2]) amounted to 0.66 nM.

Turning to “trans-(±)-[2-(3-Fluoro-phenyl)-cyclopropyl]-methylamine Hydrochloride [TKU-II-99]”, the EC50 at human 5-HT2B receptor (setting [1]) was found to be 4.68 µM; on human 5-HT2A receptor (setting [1]), 0.0634 µM; on human 5-HT2C receptor (setting [2]), 63.2 nM. Further, on human 5-HT2C receptor, the 2A/2C ratio amounted to 1.0. Besides, at human 5-HT2C receptor, the 2B/2C ratio is 74.

In the case of `c1ccc(CNC[C@@H]2C[C@H]2c2ccccc2)cc1` (racemic) [TKU-II-36, trans-(±)-N-Benzyl-(2-phenyl-cyclopropylmethyl)-amine], the EC50 on human 5-HT2B receptor (setting [1]) came out at 1020 µM; at human 5-HT2A receptor (setting [1]), 123 µM; on human 5-HT2C receptor (setting [2]), 7460 nM. For the same molecule, at human 5-HT2C receptor, the 2A/2C ratio stood at 16.5. Besides, the 2B/2C ratio on human 5-HT2C receptor came to 137.

Take “trans-(±)-(2-Phenyl-cyclopropyl)-methylamine Hydrochloride [TKU-II-113]”: the concentration for a half-maximal effect (EC50) at human 5-HT2B receptor (setting [3]) was 0.0353 µM; on human 5-HT2A receptor (setting [3]), 0.0443 µM; on human 5-HT2C receptor (Ca++-flux, HEK-293 cells, NA = not active, Hydrochloride, read-out: 5-HT2C human EC50), 4.5 nM. Also, the 2A/2C ratio at human 5-HT2C receptor (Hydrochloride) is 9.84. Moreover, at human 5-HT2C receptor (Hydrochloride), the 2B/2C ratio turned out to be 7.84.

Turning to “trans-(±)-[2-(3-Bromo-phenyl)-cyclopropyl]-methylamine Hydrochloride [TKU-II-71]”, the EC50 on human 5-HT2B receptor (setting [1]) was 0.0192 µM. On human 5-HT2A receptor (setting [1]), the EC50 came to 0.0635 µM. In addition, at human 5-HT2C receptor, the “activity at 5-HT2C receptor” value is given as “partial agonist activity”, the 2A/2C ratio is 9.8 and the 2B/2C ratio is reported as 2.9. The EC50 at human 5-HT2C receptor (setting [2]) was 6.5 nM. In addition, the “Emax at the 5-HT2C receptor” value on human 5-HT2C receptor (partial agonist activity) was determined as 75%.

“trans-(±)-[2-(4′-Chloro-biphenyl-4-yl)-cyclopropyl]-methylamine Hydrochloride [TKU-II-82]”: the EC50 at human 5-HT2B receptor (setting [1]) was 3.54 µM; at human 5-HT2A receptor (setting [1]), 199 µM; on human 5-HT2C receptor (setting [2]), 429 nM. On human 5-HT2C receptor (5-HT2C versus 5-HT2A), the “selectivity over the 5-HT2A receptor” value is recorded as “good selectivity”. The 2A/2C ratio on human 5-HT2C receptor was found to be 464. Also, the 2B/2C ratio on human 5-HT2C receptor worked out at 8.3.

For the molecule “trans-(±)-[2-(4′-Trifluoromethyl-biphenyl-2-yl)-cyclopropyl]-methylamine Hydrochloride [TKU-II-120]”, the “5-HT2B human EC50” value on human 5-HT2B receptor (setting [1]) is recorded as “Not”. Further, the “5-HT2A human EC50” value on human 5-HT2A receptor (setting [1]) is given as “Not”. In addition, the EC50 at human 5-HT2C receptor (setting [2]) turned out to be 10.1 nM.

As to “trans-(±)-[2-(4′-Chloro-biphenyl-3-yl)-cyclopropyl]-methylamine Hydrochloride [TKU-II-116]”, the EC50 on human 5-HT2A receptor (setting [1]) was determined as 4 µM; at human 5-HT2C receptor (setting [2]) it was 124 nM. In addition, the 2A/2C ratio on human 5-HT2C receptor was 32.3.

Regarding `N[C@@H]1C[C@H]1c1ccccc1` (relative stereo) [Tranylcypromine, trans-2-phenylcyclopropylamine, reference compound], on human 5-HT2C receptor, the 50% effective concentration (EC50) was 271 nM.

“trans-(±)-[2-(4′-Trifluoromethyl-biphenyl-3-yl)-cyclopropyl]-methylamine Hydrochloride [TKU-II-117]”: the concentration for a half-maximal effect (EC50) on human 5-HT2A receptor (setting [1]) came to 277 µM; at human 5-HT2C receptor (setting [2]) it was 465 nM. In addition, the 2A/2C ratio at human 5-HT2C receptor was determined as 596.

Turning to `CN[C@@H]1C[C@H]1c1ccccc1` (racemic) [TKU-II-38, trans-(±)-Methyl-(2-phenyl-cyclopropyl)-amine], the values for the EC50 on human 5-HT2A receptor (setting [1]) and on human 5-HT2C receptor (setting [2]) were 165 µM and 2500 nM, respectively. For the same molecule, the 2A/2C ratio on human 5-HT2C receptor is 65.8.
